pKi: −log10 of the molar value. Converted amounts (≈) assume the structure as drawn.
Key:
Substance-K receptor [1] = target: T1, Substance-K receptor (Homo sapiens, UniProt P21452); assay: Displacement of [125I]NKA from human NK2 expressed in CHO-K1 cells; format: cell-based
T1 sequence (P21452 whole entry): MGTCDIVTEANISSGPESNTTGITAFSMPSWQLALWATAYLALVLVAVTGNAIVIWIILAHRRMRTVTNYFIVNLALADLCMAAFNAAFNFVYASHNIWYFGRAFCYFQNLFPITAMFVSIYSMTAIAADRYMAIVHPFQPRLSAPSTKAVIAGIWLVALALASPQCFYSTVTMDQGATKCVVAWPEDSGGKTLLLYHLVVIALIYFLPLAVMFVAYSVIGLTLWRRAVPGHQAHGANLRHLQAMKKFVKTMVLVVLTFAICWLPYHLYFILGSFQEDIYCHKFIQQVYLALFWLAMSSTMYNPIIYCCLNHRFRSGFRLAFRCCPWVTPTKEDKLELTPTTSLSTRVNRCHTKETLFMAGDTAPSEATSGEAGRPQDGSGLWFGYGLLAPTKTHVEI

Substance-K receptor [2] = target: T2, Substance-K receptor (Cavia porcellus, UniProt Q64077); assay: […] activity at NK2 receptor in guinea pig smooth muscle; format: functional
T2 sequence (Q64077 whole entry): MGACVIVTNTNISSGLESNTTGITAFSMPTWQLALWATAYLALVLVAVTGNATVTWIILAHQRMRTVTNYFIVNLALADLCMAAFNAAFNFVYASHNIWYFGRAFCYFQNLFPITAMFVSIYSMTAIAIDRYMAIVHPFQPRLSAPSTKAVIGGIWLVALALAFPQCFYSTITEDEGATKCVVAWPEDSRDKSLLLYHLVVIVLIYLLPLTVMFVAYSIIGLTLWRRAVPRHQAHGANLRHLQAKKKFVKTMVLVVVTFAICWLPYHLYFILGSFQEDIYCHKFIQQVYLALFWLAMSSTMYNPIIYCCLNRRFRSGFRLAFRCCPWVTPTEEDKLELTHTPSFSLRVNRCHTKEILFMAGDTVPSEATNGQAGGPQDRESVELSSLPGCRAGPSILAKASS

[3] = Solubility at pH 7.4; format: physicochemical; conditions: buffer
[4] = Metabolic stability in guinea pig liver S9 fraction after 30 mins; format: ADME, subcellular, Cavia porcellus; conditions: read-out: Stability

Compound | pKi (Substance-K receptor [1]) | other results
NCCOCCOCCNC(=O)[C@H](Cc1ccccc1)NC(=O)CNC(=O)c1cc2ccccc2s1 | < 5.00 | 
CCCCN(CCCC)CCCNC(=O)[C@@H](Cc1ccccc1)NC(=O)C1(NC(=O)c2cc3ccccc3s2)CCCCC1 |  | pKi (Substance-K receptor [2]): 6.70
NCCOCCOCCNC(=O)[C@H](Cc1ccccc1)NC(=O)C1(NC(=O)c2cc3ccccc3s2)CCc2ccccc21 (stereo partly specified) | 7.90 | 
NCCOCCOCCNC(=O)[C@H](Cc1ccccc1)NC(=O)C1(NC(=O)c2cc3ccccc3s2)CCCC1 | 7.30 | 
O=C(NC1(C(=O)N[C@H](Cc2ccccc2)C(=O)NCCCN2CCOCC2)CCCCC1)c1cc2ccccc2s1 |  | pKi (Substance-K receptor [2]): 7.00
O=C(NC1(C(=O)N[C@H](Cc2ccccc2)C(=O)NCCCN2CCOCC2)CCCC1)c1cc2ccccc2s1 |  | solubility [3]: 0.1 mg/mL (≈ 178 µM); remaining at 0.5 h [4]: 4%
O=C(NC1(C(=O)NC(Cc2ccccc2)C(=O)NCCN2CCCCC2)CCCCC1)c1cc2ccccc2s1 (stereo unspecified) | 7.20 | 
NCCCCCCNC(=O)C(Cc1ccccc1)NC(=O)C1(NC(=O)c2cc3ccccc3s2)CCCCC1 (stereo unspecified) | 6.60 | pKi (Substance-K receptor [2]): < 6.00
CC(C)(NC(=O)c1cc2ccccc2s1)C(=O)N[C@@H](Cc1ccccc1)C(=O)NCCOCCOCCN | 7.00 | 
CN1CCN(CCCNC(=O)[C@@H](Cc2ccccc2)NC(=O)C2(NC(=O)c3cc4ccccc4s3)CCCCC2)CC1 | 8.40 | 
O=C(NC1(C(=O)NC(Cc2ccccc2)C(=O)NCCN2CCOCC2)CCCCC1)c1cc2ccccc2s1 (stereo unspecified) | 7.00 | 
CN1CCCC1CCCNC(=O)C(Cc1ccccc1)NC(=O)C1(NC(=O)c2cc3ccccc3s2)CCCCC1 (stereo unspecified) | 7.30 | 
NCCCCCCCCNC(=O)C(Cc1ccccc1)NC(=O)C1(NC(=O)c2cc3ccccc3s2)CCCCC1 (stereo unspecified) | 6.90 | 
CC(C)C[C@@H](NC(=O)[C@H](Cc1ccccc1)NC(=O)C1(NC(=O)c2cc3ccccc3s2)CCCCC1)C(N)=O | 7.15 | 
CCN(CC)CCCNC(=O)C(Cc1ccccc1)NC(=O)C1(NC(=O)c2cc3ccccc3s2)CCCCC1 (stereo unspecified) | 7.00 | 
CCN(CC)CCCNC(=O)[C@H](Cc1ccccc1)NC(=O)C1(NC(=O)c2cc3ccccc3s2)CCCCC1 | 7.40 | 
CN1CCN(CCCNC(=O)[C@H](Cc2ccccc2)NC(=O)C2(NC(=O)c3cc4ccccc4s3)CCCCC2)CC1 | 7.00 | 
CC(C)N(CCNC(=O)C(Cc1ccccc1)NC(=O)C1(NC(=O)c2cc3ccccc3s2)CCCCC1)C(C)C (stereo unspecified) | 7.50 | 

Compound | pKi (Substance-K receptor [1]) | other results
CCCCN(CCCC)CCCNC(=O)[C@H](Cc1ccccc1)NC(=O)C1(NC(=O)c2cc3ccccc3s2)CCCCC1 | 8.20 | 
CC1CCCCN1CCCNC(=O)[C@@H](Cc1ccccc1)NC(=O)C1(NC(=O)c2cc3ccccc3s2)CCCCC1 (stereo partly specified) | 9.40 | pKi (Substance-K receptor [2]): 6.70
CC(C)C[C@H](NC(=O)[C@H](Cc1ccccc1)NC(=O)C1(NC(=O)c2cc3ccccc3s2)CCCCC1)C(N)=O | 5.00 | 
NCCOCCOCCNC(=O)[C@H](Cc1ccccc1)NC(=O)C1(NC(=O)c2cc3ccccc3s2)CCc2ccccc2C1 (stereo partly specified) | 6.40 | 
CCN(CC)CCNC(=O)C(Cc1ccccc1)NC(=O)C1(NC(=O)c2cc3ccccc3s2)CCCCC1 (stereo unspecified) | 7.00 | 
CCCCN(CCCC)CCCNC(=O)[C@@H](Cc1ccccc1)NC(=O)C1(NC(=O)c2cc3ccccc3s2)CCc2ccccc21 (stereo in doubt; 45a) | 7.50 | 
CCC(CC)(NC(=O)c1cc2ccccc2s1)C(=O)N[C@@H](Cc1ccccc1)C(=O)NCCOCCOCCN | < 6.00 | 
CC(C)C[C@@H](NC(=O)[C@@H](Cc1ccccc1)NC(=O)C1(NC(=O)c2cc3ccccc3s2)CCCCC1)C(N)=O | 7.30 | 
NCCCCCCCNC(=O)C(Cc1ccccc1)NC(=O)C1(NC(=O)c2cc3ccccc3s2)CCCCC1 (stereo unspecified) | 7.00 | 
NCCOCCOCCNC(=O)[C@H](Cc1ccccc1)NC(=O)C1(NC(=O)c2cc3ccccc3s2)CCCCC1 | 7.90 | 
O=C(NC1(C(=O)N[C@@H](Cc2ccccc2)C(=O)NC2CC2)CCCCC1)c1cc2ccccc2s1 | 6.50 | 
CC1CCCCN1CCCNC(=O)[C@H](Cc1ccccc1)NC(=O)C1(NC(=O)c2cc3ccccc3s2)CCCCC1 (stereo partly specified) | 8.10 | pKi (Substance-K receptor [2]): < 5.50
O=C(NC1(C(=O)N[C@@H](Cc2ccccc2)C(=O)NCCCN2CCOCC2)CCCCC1)c1cc2ccccc2s1 | 7.60 | 
CC(C)C[C@H](NC(=O)[C@@H](Cc1ccccc1)NC(=O)C1(NC(=O)c2cc3ccccc3s2)CCCCC1)C(N)=O | 6.50 | 
CCCCN(CCCC)CCCNC(=O)[C@@H](Cc1ccccc1)NC(=O)C1(NC(=O)c2cc3ccccc3s2)CCc2ccccc21 (stereo in doubt; 45b) | 8.80 | 
CN(C)CCCNC(=O)[C@H](Cc1ccccc1)NC(=O)C1(NC(=O)c2cc3ccccc3s2)CCCCC1 | 6.50 | 
NCCCCCNC(=O)[C@H](Cc1ccccc1)NC(=O)C1(NC(=O)c2cc3ccccc3s2)CCCCC1 | 6.40 | 
NCc1ccc(CNC(=O)[C@H](Cc2ccccc2)NC(=O)C2(NC(=O)c3cc4ccccc4s3)CCCCC2)cc1 | 6.90 | 

Continued, in another order:

pKi (Substance-K receptor [1]) | Compound | other results
8.40 | O=C(NC1(C(=O)N[C@H](Cc2ccccc2)C(=O)NCCCN2CCCC2)CCCCC1)c1cc2ccccc2s1 | pKi (Substance-K receptor [2]): < 6.00
8.90 | O=C(NC1(C(=O)N[C@H](Cc2ccccc2)C(=O)NCCCN2CCCC2)CCc2ccccc21)c1cc2ccccc2s1 (stereo in doubt; 46b) | 
8.80 | CCCCN(CCCC)CCCNC(=O)[C@@H](Cc1ccccc1)NC(=O)C1(NC(=O)c2cc3ccccc3s2)Cc2ccccc2C1 | pKi (Substance-K receptor [2]): 6.70
< 7.00 | CN1CCN(CCCNC(=O)[C@@H](Cc2ccccc2)NC(=O)C2(NC(=O)c3cc4ccccc4s3)CCc3ccccc32)CC1 (stereo in doubt; 48a) | 
8.20 | O=C(NC1(C(=O)N[C@H](Cc2ccccc2)C(=O)NCCCN2CCCC2)CCc2ccccc21)c1cc2ccccc2s1 (stereo in doubt; 46a) | 
8.90 | O=C(NC1(C(=O)N[C@H](Cc2ccccc2)C(=O)NCCCN2CCCC2)Cc2ccccc2C1)c1cc2ccccc2s1 | pKi (Substance-K receptor [2]): 6.70
8.70 | CN1CCN(CCCNC(=O)[C@@H](Cc2ccccc2)NC(=O)C2(NC(=O)c3cc4ccccc4s3)CCCC2)CC1 | 
8.70 | O=C(NC1(C(=O)N[C@H](Cc2ccccc2)C(=O)NCCCN2CCOCC2)Cc2ccccc2C1)c1cc2ccccc2s1 | pKi (Substance-K receptor [2]): 7.00
9.00 | CN1CCN(CCCNC(=O)[C@@H](Cc2ccccc2)NC(=O)C2(NC(=O)c3cc4ccccc4s3)CCc3ccccc32)CC1 (stereo in doubt; 48b) | pKi (Substance-K receptor [2]): 7.60
7.70 | O=C(NC1(C(=O)N[C@@H](Cc2ccccc2)C(=O)NCCCN2CCCC2)CCCCC1)c1cc2ccccc2s1 | 
8.70 | O=C(NC1(C(=O)N[C@H](Cc2ccccc2)C(=O)NCCCN2CCOCC2)CCc2ccccc21)c1cc2ccccc2s1 (stereo in doubt; 47b) | pKi (Substance-K receptor [2]): 7.70
7.00 | O=C(NC1(C(=O)N[C@H](Cc2ccccc2)C(=O)NCCCN2CCOCC2)CCc2ccccc21)c1cc2ccccc2s1 (stereo in doubt; 47a) | 
7.70 | NCCOCCOCCNC(=O)[C@H](Cc1ccccc1)NC(=O)C1(NC(=O)c2cc3ccccc3s2)Cc2ccccc2C1 | 
8.60 | CN1CCN(CCCNC(=O)[C@@H](Cc2ccccc2)NC(=O)C2(NC(=O)c3cc4ccccc4s3)Cc3ccccc3C2)CC1 | pKi (Substance-K receptor [2]): 6.90

From ChEMBL document CHEMBL1149644, “alpha,alpha-Cyclic aminoacids as useful scaffolds for the preparation of hNK(2) receptor antagonists” (Bioorg Med Chem Lett, 2007)
